# Non-standard residues stand in square brackets, D forms with d. Residues, ends and D or L forms follow the SMILES beside them.
# Assays:
# souris femelles Balb/C [1] = assay: TNCB contact hypersensitivity in mice, peptide applied topically in a water-in-oil cream (ear swelling); format: in vivo; details: peptide in water-in-oil cream applied on the zone to be sensitised 2 h before sensitisation; measured 24 h after challenge; positive controls 7×10^-2 mm
# Procedure: (§1) L'étude est effectuée sur des souris femelles Balb/C âgées de 7 à 10 semaines.
# (§2) La réaction de sensibilisation consiste à appliquer au pinceau 100 µl d'une solution à 0,15 % de TNCB dans un mélange acétone-huile d'olive (4:1) sur la peau rasée de l'abdomen des souris.
# (§3) La réaction déclenchante est réalisée 7 jours après la réaction de sensibilisation. Cette réaction déclenchante consiste à appliquer sur les deux faces d'une oreille 10 microlitres d'une solution à 0,8 % de TNCB dans un véhicule constitué par le mélange acétone-huile d'olive déjà mentionné ci-dessus.
# (§4) Sur l'autre oreille, on applique, pour comparaison, uniquement ce mélange d'acétone et d'huile d'olive.
# (§5) On évalue l'intensité d'une éventuelle réaction d'hypersensibilité de contact par estimation de l'importance de l'oedème de l'oreille traitée par le TNCB, en comparaison avec l'oreille traitée par le seul véhicule. Pour cela, on mesure et compare l'épaisseur des oreilles à l'aide d'une vis micrométrique. Cette mesure est effectuée 24 heures après la réaction déclenchante.
# On opère comme en a) ci-dessus, mais le peptide, incorporé dans une crème de type eau-dans-l'huile, est appliqué sur la zone à sensibiliser 2 heures avant la sensibilisation.
# souris femelles Balb/C [2] = assay: TNCB contact hypersensitivity in mice, peptide injected intravenously before sensitisation (ear swelling); format: in vivo
# Procedure: as §1
# On injecte une dose de 1,5 µg du peptide étudié (en solution dans du tampon PBS contenant 0,1 % de sérum de souris) dans une veine de la queue des souris 2 heures avant la réaction de sensibilisation.
# as §2, §3, §4, §5
# On applique également le TNCB sur l'oreille de souris témoins n'ayant pas été préalablement sensibilisée (témoins négatifs). […]
# souris femelles Balb/C [3] = assay: TNCB contact hypersensitivity in mice after a second sensitisation (tolerance test, ear swelling); format: in vivo
# Text: 14 jours après la fin de l'expérience décrite en a) ci-dessus, on soumet les mêmes souris à une nouvelle réaction de sensibilisation sur la peau rasée du dos, comme décrit en a).
# 7 jours plus tard, on effectue le test de déclenchement par application du TNCB sur l'oreille, et 24 heures plus tard, on mesure le degré de gonflement de l'oreille.
# Cette seconde expérience a pour but de faire une distinction entre une éventuelle immunosuppression temporaire aspécifique et une tolérance immunologique spécifique.
# patients volontaires = assay: Topical effect in human volunteers with nickel contact allergy (nickel sulfate patch test); format: in vivo, homme; details: out of 14 nickel-sensitised persons; cream with 100 µM peptide under occlusive dressing on back skin 2 h before 5 % nickel sulfate patch; read 24 h later
# Procedure: Cette étude a été effectuée sur des patients volontaires âgés de 18 à 65 ans, chez lesquels une allergie de contact au nickel était suspectée. Ces patients étaient exempts d'autres maladies cutanées, et les résultats de cette étude montrent qu'ils n'avaient pas d'allergie aux constituants de la crème utilisée comme véhicule.
# Au jour 0, on applique avec un pansement occlusif, sur des zones de la peau du dos, d'une part une crème contenant 100 µM du peptide de formule II, et d'autre part la crème seule, sans peptide, utilisée comme placebo.
# Deux heures plus tard, on applique sur les mêmes zones de la peau, et aussi sur une zone adjacente non prétraitée, des patchs imprégnés de vaseline contenant du sulfate de nickel à une concentration de 5 %.
# 24 heures plus tard, on examine les patients. Ceux qui ont développé une réaction d'hypersensibilité de contact sur la zone traitée par le placebo (et aussi sur la zone adjacente n'ayant reçu que l'application de sel de nickel), et qui sont donc des personnes qui étaient déjà sensibilisées au nickel, sont au nombre de 14. Sur ces 14 personnes, 7 n'ont développé aucune réaction d'hypersensibilité de contact sur la zone traitée par le peptide.
compound,measurement,setting,value
"CC(=O)N[C@H](CCCCN)C(=O)N1CCC[C@@H]1C(=O)N[C@@H](C(N)=O)C(C)C [peptide de formule II, Ac-D-Lys-D-Pro-D-Val-NH2] (Ac-[dK]-[dP]-[dV]-NH2)",augmentation de l'épaisseur de l'oreille,souris femelles Balb/C [1],3×10^-2 mm
same,réaction d'hypersensibilité de contact (result in words),"souris femelles Balb/C [2]; 1,5 µg peptide i.v. 2 h before TNCB sensitisation",réduit fortement la réaction d'hypersensibilité de contact
same,augmentation de l'épaisseur de l'oreille,"souris femelles Balb/C [2]; 1,5 µg peptide i.v. (tail vein) 2 h before sensitisation with 0,15 % TNCB, challenge day 7 with 0,8 % TNCB on ear, measured 24 h after challenge, ^-2 mm, negative controls about 1×10^-2 mm","~2,5×10^-2 mm"
same,hypersensibilité de contact après une seconde dose sensibilisante de TNCB (result in words),souris femelles Balb/C [3]; mice treated with peptide before the first sensitisation only,n'ont pas développé une hypersensibilité de contact
same,degré de gonflement de l'oreille,"souris femelles Balb/C [3]; same mice re-sensitised with TNCB on the back 14 days after first experiment, no new peptide dose, challenge 7 days later, measured 24 h later, positive controls about 14×10^-2 mm, negative controls about 3,5×10^-2 mm","~3,5×10^-2 mm"
same,personnes n'ayant développé aucune réaction d'hypersensibilité de contact sur la zone traitée par le peptide,patients volontaires,7
